14 compounds from ChEMBL document CHEMBL1201862, “PubChem BioAssay data set” (2004) can be followed below.

Test systems include SF-268; SW-620; U-251; SNB-19; A549; HCT-15; SN12C; SNB-75; Malme-3M; NCI-H226; SK-MEL-28; UACC-62; UACC-257; RXF 393; OVCAR-4; OVCAR-5.
What all share (experiment): growth of human tumour cells (NCI), 48 h

SMILES strings stand for the structures.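 How tested: cells in 96-well plates exposed to compound for 48 hours at five concentrations. The concentration for 50% growth inhibition is given as GI50.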 Calls of active or inactive are those of the source. Rule as the data show it: active = GI50 up to about 1.1 µM and inactive = higher. Bounds are passed on as bounds.

As to `O=C1CCC2(c3ccc(F)cc3)Nc3cc(Cl)ccc3N12` (stereo unspecified), the GI50 with SF-268 is > 100 µM (inactive); in the experiment on SW-620 it was > 100 µM (inactive); in the experiment with U-251, > 100 µM (inactive); with SNB-19 it was > 100 µM (inactive); with A549 it was 59.4 µM (inactive); with HCT-15, over 100 µM. Moreover, the GI50 in the experiment with SN12C is > 100 µM (inactive); in the experiment on SNB-75, > 100 µM (inactive); in the experiment on Malme-3M, 59.7 µM (inactive); with NCI-H226, 38.5 µM (inactive); with SK-MEL-28, > 100 µM (inactive); with UACC-62, 66.1 µM (inactive). Besides, the GI50 was 90.4 µM (inactive) with UACC-257, 88.9 µM (inactive) with RXF 393 and 48.6 µM (inactive) in the experiment on OVCAR-4.
As for `O=C1OC(CCCl)(c2ccccc2)CC1CN1CCOCC1` (stereo unspecified), the GI50 in the experiment with SF-268 was 41.4 µM (inactive); with SW-620 it was 17 µM (inactive); in the experiment on U-251 it was > 100 µM (inactive); in the experiment on A549, 80.5 µM (inactive); in the experiment on HCT-15, 20.9 µM; with SN12C, 29.2 µM (inactive). In addition, the GI50 in the experiment with SNB-75 is 15.4 µM (inactive); in the experiment on OVCAR-5, > 100 µM (inactive); in the experiment on Malme-3M it was 18.4 µM (inactive); with NCI-H226, 13.8 µM (inactive); in the experiment on SK-MEL-28 it was 19.7 µM (inactive); with UACC-62, 21 µM (inactive). Further, the GI50 in the experiment on UACC-257 is 22.5 µM (inactive); with RXF 393, 17.2 µM (inactive); in the experiment on OVCAR-4 it was 48.4 µM (inactive).
Take `CCC1CCC2CCCC(C)N12` (stereo unspecified): the GI50 was > 100 µM (inactive) with SF-268; > 100 µM (inactive) in the experiment on SW-620; > 100 µM (inactive) in the experiment with U-251; > 100 µM (inactive) with SNB-19; > 100 µM (inactive) in the experiment with A549; over 100 µM in the experiment with HCT-15. In addition, the GI50 in the experiment with SN12C, with SNB-75, with Malme-3M, in the experiment on NCI-H226, in the experiment on SK-MEL-28 and with UACC-62 was > 100 µM (inactive) each time. In addition, the GI50 with UACC-257 and with OVCAR-4 was > 100 µM (inactive) each time.
Regarding `NCCOCn1cc(Cc2cccc(OCc3ccccc3)c2)c(=O)[nH]c1=O`, the GI50 with SW-620 is > 100 µM (inactive); with U-251, > 100 µM (inactive); in the experiment with SNB-19, > 100 µM (inactive); with A549, > 100 µM (inactive); in the experiment with HCT-15, over 100 µM; in the experiment on SN12C, > 100 µM (inactive). Moreover, the GI50 in the experiment on SNB-75 was 79.8 µM (inactive); with NCI-H226 it was > 100 µM (inactive); in the experiment on SK-MEL-28, > 100 µM (inactive); in the experiment on UACC-62, > 100 µM (inactive); in the experiment with OVCAR-4 it was 90.6 µM (inactive).
`CC(=O)NNc1ncc(C(=O)/C=C/c2ccccc2C)s1`: the GI50 with SF-268, in the experiment on SW-620, in the experiment with U-251, in the experiment on SNB-19, with A549 and in the experiment on SNB-75 was > 100 µM (inactive) each time. The GI50 with OVCAR-5, in the experiment with Malme-3M, in the experiment on SK-MEL-28, with UACC-62, in the experiment on UACC-257 and in the experiment on RXF 393 was > 100 µM (inactive) throughout.
In the case of `CC(=O)O[C@H]1CC2C=CC3C(CCC31)O2` (stereo partly specified), the GI50 in the experiment on SF-268 was > 100 µM (inactive); in the experiment on SW-620, > 100 µM (inactive); in the experiment on U-251 it was > 100 µM (inactive); in the experiment on SNB-19, > 100 µM (inactive); with A549 it was > 100 µM (inactive); in the experiment with HCT-15, over 100 µM. Also, the GI50 in the experiment with SN12C, in the experiment on SNB-75, in the experiment on Malme-3M, in the experiment on SK-MEL-28, in the experiment on UACC-62 and with RXF 393 was > 100 µM (inactive) in each case. The GI50 with OVCAR-4 is > 100 µM (inactive).
For the compound `O=C1NC2(CCCC2)/C(=N\O)C12CCCC2`, the GI50 is > 100 µM (inactive) with SF-268; > 100 µM (inactive) in the experiment on SW-620; > 100 µM (inactive) in the experiment on U-251; > 100 µM (inactive) in the experiment on SNB-19; > 100 µM (inactive) with A549; over 100 µM in the experiment with HCT-15. Moreover, the GI50 in the experiment with SN12C, in the experiment on SNB-75, in the experiment with OVCAR-5, in the experiment with Malme-3M, in the experiment with SK-MEL-28 and in the experiment with UACC-62 was > 100 µM (inactive) in each case. Moreover, the GI50 in the experiment on UACC-257, in the experiment with RXF 393 and in the experiment with OVCAR-4 was > 100 µM (inactive) in each case.
In the case of `COc1ccc(C2(CN(C)C)COc3cc(OC)c(OC)cc3C2=O)cc1OC` (stereo unspecified), the GI50 is > 100 µM (inactive) in the experiment with SF-268; 21.6 µM (inactive) with SW-620; 45.9 µM (inactive) in the experiment with U-251; > 100 µM (inactive) with SNB-19; 69.8 µM (inactive) in the experiment with A549; 77.1 µM (inactive) in the experiment on SN12C. For the same compound, the GI50 with SNB-75 is 47 µM (inactive); with Malme-3M, > 100 µM (inactive); in the experiment on NCI-H226, 84.9 µM (inactive); in the experiment with SK-MEL-28 it was > 100 µM (inactive); in the experiment on UACC-62, 38.7 µM (inactive); in the experiment with UACC-257, 49.1 µM (inactive). The GI50 in the experiment with RXF 393 is 31.8 µM (inactive); in the experiment on OVCAR-4, 34.6 µM (inactive).
In the case of `CCOc1cn(C2OC(CO)C(O)C2O)c(=O)[nH]c1=O` (stereo unspecified), the GI50 in the experiment with SF-268 is > 100 µM (inactive); in the experiment with SW-620, 31.3 µM (inactive); in the experiment with U-251, 20.3 µM (inactive); in the experiment on SNB-19, > 100 µM (inactive); in the experiment on A549, > 100 µM (inactive); with HCT-15 it was over 100 µM. The GI50 with SN12C, with SNB-75, in the experiment on OVCAR-5, in the experiment with Malme-3M, in the experiment on NCI-H226 and with SK-MEL-28 was > 100 µM (inactive) throughout. Moreover, the GI50 with UACC-62, in the experiment with UACC-257 and in the experiment on RXF 393 was > 100 µM (inactive) in each case.
Turning to `CCCCC1(C(NC(=O)c2ccccc2Cl)c2ccncc2)C(=O)N(c2ccccc2)N(c2ccccc2)C1=O` (stereo unspecified), the GI50 with SF-268 was > 100 µM (inactive); in the experiment on SW-620, 78.7 µM (inactive); with U-251, 34 µM (inactive); in the experiment with SNB-19, 77.6 µM (inactive); in the experiment on A549, 28.4 µM (inactive); with HCT-15, 38.5 µM. In addition, the GI50 in the experiment with SN12C was 94.4 µM (inactive); in the experiment with SNB-75, 12.4 µM (inactive); in the experiment with OVCAR-5, > 100 µM (inactive); in the experiment with Malme-3M, 61 µM (inactive); in the experiment on NCI-H226 it was 66.8 µM (inactive); in the experiment with SK-MEL-28 it was > 100 µM (inactive). Moreover, the GI50 in the experiment on UACC-62 is 69.5 µM (inactive); with UACC-257, 29.7 µM (inactive); in the experiment with RXF 393 it was 37.6 µM (inactive).
Take `CCCCCCCCc1cc2c(O)c(c1)Cc1cc(CCCCCCCC)cc(c1O)Cc1cc(CCCCCCCC)cc(c1O)Cc1cc(CCCCCCCC)cc(c1O)Cc1cc(CCCCCCCC)cc(c1O)Cc1cc(CCCCCCCC)cc(c1O)C2`: the GI50 in the experiment on SF-268 is > 100 µM (inactive); in the experiment with SW-620, > 100 µM (inactive); with U-251, > 100 µM (inactive); in the experiment on SNB-19, > 100 µM (inactive); in the experiment with A549 it was > 100 µM (inactive); in the experiment with HCT-15 it was over 100 µM. For the same compound, the GI50 in the experiment with SN12C, in the experiment with SNB-75, in the experiment with OVCAR-5, in the experiment on Malme-3M, in the experiment on SK-MEL-28 and in the experiment with UACC-62 was > 100 µM (inactive) throughout. The GI50 with UACC-257 was > 100 µM (inactive).
Consider `O=C1CC[C@@H](NC(=O)Cc2ccccc2)C(=O)N1`, for which the GI50 in the experiment on SF-268, in the experiment on SW-620, in the experiment with U-251, in the experiment with SNB-19, in the experiment with A549 and in the experiment with SN12C was > 100 µM (inactive) each time. The GI50 in the experiment with SNB-75, in the experiment on OVCAR-5, with Malme-3M, with NCI-H226, in the experiment on SK-MEL-28 and in the experiment on UACC-62 was > 100 µM (inactive) in each case. Further, the GI50 with UACC-257 and in the experiment on OVCAR-4 was > 100 µM (inactive) in each case.
As to `COC1=CC(=O)C2C(C1=O)C(c1ccccc1)[C@H]2C` (stereo partly specified), the GI50 in the experiment with SF-268 was > 100 µM (inactive); with SW-620, 18.5 µM (inactive); in the experiment with U-251 it was > 100 µM (inactive); in the experiment with SNB-19, > 100 µM (inactive); with A549, > 100 µM (inactive); with HCT-15, 18.9 µM. The GI50 was 32.3 µM (inactive) with SNB-75; > 100 µM (inactive) in the experiment on OVCAR-5; 26.1 µM (inactive) in the experiment on Malme-3M; > 100 µM (inactive) in the experiment on SK-MEL-28; > 100 µM (inactive) in the experiment with UACC-62; > 100 µM (inactive) in the experiment with RXF 393.
As to `O=C1Sc2ccccc2C(=O)N2CSCC12` (stereo unspecified), the GI50 in the experiment on SF-268, in the experiment on SW-620, in the experiment on U-251, in the experiment with SNB-19, with A549 and in the experiment with SN12C was > 100 µM (inactive) throughout. The GI50 in the experiment with SNB-75, with Malme-3M, in the experiment with NCI-H226, in the experiment on SK-MEL-28, in the experiment with UACC-62 and in the experiment with UACC-257 was > 100 µM (inactive) throughout. Also, the GI50 in the experiment with RXF 393 is > 100 µM (inactive).
